The results in this text go back to ChEMBL document CHEMBL4483862, “Open-source discovery of chemical leads for next-generation chemoprotective antimalarials” (2018).

Some results are limits rather than exact numbers.

The test system of the assay is Plasmodium berghei. The experiment in a line: Luciferase/luciferin-expressing antifolate-resistant parasites were used to infect a culture of HepG2 cells that were pre-incubated with compounds. Infected hepatocytes emit light due to the luciferase reaction. Assay results are presented as the percent inhibition of light emission compared to control. […]. In kind it is functional. The conditions noted are these: sporozoite; for IC90: read-out: LUCIFERASE INFECTION ASSAY - IC90.

Regarding `COc1ccc(C(N)=O)c(OCC(=O)c2cc(C)n(Cc3ccccc3)c2C)c1`, the IC90 worked out at 9.51 µM. Further, under “HEPG2TOX_HILL_SLOPE 1.79, HEPG2TOX_R_SQUARED 0.962, PBLUC_HILL_SLOPE 4.42, PBLUC_R_SQUARED 0.333, read-out: LUCIFERASE INFECTION ASSAY - IC50”, the IC50 was determined as 5.78 µM.

As for `Cc1ccc(-c2nc3cc(Br)cnc3nc2-c2ccc(C)cc2)cc1`, the IC90 worked out at 6.85 µM. In addition, the IC50 (HEPG2TOX_HILL_SLOPE 1.79, HEPG2TOX_R_SQUARED 0.907, PBLUC_HILL_SLOPE 4.08, PBLUC_R_SQUARED 0.409, read-out: LUCIFERASE INFECTION ASSAY - IC50) came out at 4 µM.

As to `NC(=S)N/N=C/c1ncc(C(F)(F)F)cc1Cl`, the IC90 turned out to be 4.07 µM. Further, the IC50 (HEPG2TOX_HILL_SLOPE 1.78, HEPG2TOX_R_SQUARED 0.942, PBLUC_HILL_SLOPE 40.1, PBLUC_R_SQUARED 0.426, read-out: LUCIFERASE INFECTION ASSAY - IC50) is 3.85 µM.

Take `Cc1ccnc(NC(c2ccccn2)c2ccc3ccc(C)nc3c2O)c1` (stereo not drawn): the IC90 was more than 9.26 µM. Moreover, the IC50 (HEPG2TOX_HILL_SLOPE 1.81, HEPG2TOX_R_SQUARED 0.956, PBLUC_HILL_SLOPE 14.5, PBLUC_R_SQUARED 0.453, read-out: LUCIFERASE INFECTION ASSAY - IC50) came to 8.04 µM.

As for `COCc1cccc(-c2cc(-c3cccc4ccccc34)cnc2N)c1`, the IC90 came out at 1.23 µM. Moreover, under “HEPG2TOX_HILL_SLOPE 1.78, HEPG2TOX_R_SQUARED 0.808, PBLUC_HILL_SLOPE 16.4, PBLUC_R_SQUARED 0.784, read-out: LUCIFERASE INFECTION ASSAY - IC50”, the IC50 was determined as 1.08 µM.

Turning to `CC(C)Cc1ccc(C(C)NC(=O)c2ccc(CNC(N)=O)cc2)cc1` (stereo not drawn), the IC90 was more than 10 µM. Moreover, the IC50 (HEPG2TOX_HILL_SLOPE 1.82, HEPG2TOX_R_SQUARED 0.295, read-out: LUCIFERASE INFECTION ASSAY - IC50) is more than 10 µM.

Consider `COc1ccc(C(=O)C(/C=N/N)=N/Nc2ccc(C(F)(F)F)cc2)cc1`, for which the IC90 turned out to be 8.8 µM. Besides, the IC50 (HEPG2TOX_HILL_SLOPE 1.78, HEPG2TOX_R_SQUARED 0.947, PBLUC_HILL_SLOPE 3.28, PBLUC_R_SQUARED 0.359, read-out: LUCIFERASE INFECTION ASSAY - IC50) was 4.5 µM.

On to `CN1C(=O)N(CCCc2ccncc2)C(=O)C12CCN(Cc1ccc(N3CCCC3)cc1)CC2`, for which the IC90 worked out at 2.98 µM. For the same molecule, the IC50 (HEPG2TOX_HILL_SLOPE 1.82, HEPG2TOX_R_SQUARED 0.908, PBLUC_HILL_SLOPE 12.5, PBLUC_R_SQUARED 0.321, read-out: LUCIFERASE INFECTION ASSAY - IC50) came out at 2.5 µM.

As for `CC(=O)c1cccc(-c2cnc3ccc(-c4cccnc4)nn23)c1`, the IC90 was 4.84 µM. Moreover, the IC50 (HEPG2TOX_HILL_SLOPE 1.81, HEPG2TOX_R_SQUARED 0.991, PBLUC_HILL_SLOPE 1.06, PBLUC_R_SQUARED 0.743, read-out: LUCIFERASE INFECTION ASSAY - IC50) was found to be 0.606 µM.

For `Cn1c(=O)[nH]c(=O)c2ccc(C(=O)/N=c3/sccn3Cc3ccc(Cl)cc3Cl)nc21`, the IC90 came to 5.16 µM. Also, the IC50 (HEPG2TOX_HILL_SLOPE 1.78, HEPG2TOX_R_SQUARED 0.947, PBLUC_HILL_SLOPE 2.11, PBLUC_R_SQUARED 0.878, read-out: LUCIFERASE INFECTION ASSAY - IC50) was found to be 1.82 µM.

For `O=C(O)C(CCO)Sc1nnc(Nc2ccc(Oc3ccccc3)cc2)s1` (stereo not drawn), the IC90 is more than 10 µM. Also, the IC50 (HEPG2TOX_HILL_SLOPE 1.82, HEPG2TOX_R_SQUARED 0.816, PBLUC_HILL_SLOPE 10.1, PBLUC_R_SQUARED 0.331, read-out: LUCIFERASE INFECTION ASSAY - IC50) is 9.1 µM.

For the molecule `CCCCNC(=O)c1c(NC(=O)C(C)Oc2ccccc2)nc2ccccn12` (stereo not drawn), the IC90 is more than 8.67 µM. For the setting “HEPG2TOX_HILL_SLOPE 1.79, HEPG2TOX_R_SQUARED 0.135, PBLUC_HILL_SLOPE 4.23, PBLUC_R_SQUARED 0.241, read-out: LUCIFERASE INFECTION ASSAY - IC50”, the IC50 was found to be 6.54 µM.

Consider `COc1cccc(/C=c2\s/c(=C\C(=O)C(C)(C)C)n(C)c2=O)c1OC(C)C`, for which the IC90 is more than 10 µM. Also, the IC50 (HEPG2TOX_HILL_SLOPE 1.82, HEPG2TOX_R_SQUARED 0.577, PBLUC_HILL_SLOPE 1.88, PBLUC_R_SQUARED 0.501, read-out: LUCIFERASE INFECTION ASSAY - IC50) is 8.5 µM.

In the case of `Cc1nn(C)c(Cl)c1/C=N/Nc1ccc([N+](=O)[O-])cc1S(=O)(=O)Nc1ccc(Cl)cc1`, the IC90 is more than 10 µM. Besides, the IC50 (HEPG2TOX_HILL_SLOPE 1.82, HEPG2TOX_R_SQUARED 0.852, PBLUC_HILL_SLOPE 13.6, PBLUC_R_SQUARED 0.455, read-out: LUCIFERASE INFECTION ASSAY - IC50) worked out at 9.47 µM.

Take `CN(C)c1ccc(-c2cnc3ccc(NCc4ccc5c(c4)OCO5)nn23)cc1`: the IC90 turned out to be 3.57 µM. Also, the IC50 (HEPG2TOX_HILL_SLOPE 1.81, HEPG2TOX_R_SQUARED 0.969, PBLUC_HILL_SLOPE 2.01, PBLUC_R_SQUARED 0.65, read-out: LUCIFERASE INFECTION ASSAY - IC50) was found to be 1.2 µM.

Turning to `CC1(C(=O)NC(=S)NNc2nc3ccccc3[nH]2)CC1(Cl)Cl` (stereo not drawn), the IC90 was more than 10 µM. Besides, the IC50 (HEPG2TOX_HILL_SLOPE 1.8, HEPG2TOX_R_SQUARED 0.951, read-out: LUCIFERASE INFECTION ASSAY - IC50) is more than 10 µM.

For the molecule `CCN(CC)c1ccc(NC(=O)c2ccc(Br)o2)cc1S(=O)(=O)Nc1ccccc1OC`, the IC90 amounted to 4.43 µM. Moreover, the IC50 (HEPG2TOX_HILL_SLOPE 1.78, HEPG2TOX_R_SQUARED 0.619, PBLUC_HILL_SLOPE 2.27, PBLUC_R_SQUARED 0.536, read-out: LUCIFERASE INFECTION ASSAY - IC50) was found to be 1.68 µM.

`COc1cc(OC)cc(C(=O)Nc2nc3ccc(C)cn3c2C(=O)NC2CCCCC2)c1`: the IC90 was found to be 1.03 µM. Also, where the note is “HEPG2TOX_HILL_SLOPE 1.81, HEPG2TOX_R_SQUARED 0.745, PBLUC_HILL_SLOPE 12.8, PBLUC_R_SQUARED 0.53, read-out: LUCIFERASE INFECTION ASSAY - IC50”, the IC50 was found to be 0.872 µM.

On to `CCCCc1[nH]nc2ccnc(-c3cncc(OC)c3)c12`, for which the IC90 was more than 10 µM. Besides, where the note is “HEPG2TOX_HILL_SLOPE 1.78, HEPG2TOX_R_SQUARED 0.895, read-out: LUCIFERASE INFECTION ASSAY - IC50”, the IC50 is more than 10 µM.

As for `CCCCCn1c(SCC(=O)Nc2ccc(C(C)C)cc2)n[nH]c1=O`, the IC90 is 3.43 µM. Moreover, where the note is “HEPG2TOX_HILL_SLOPE 1.82, HEPG2TOX_R_SQUARED 0.814, PBLUC_HILL_SLOPE 12.7, PBLUC_R_SQUARED 0.412, read-out: LUCIFERASE INFECTION ASSAY - IC50”, the IC50 turned out to be 2.89 µM.

For the molecule `CC(OC(=O)c1cc([N+](=O)[O-])ccc1N(C)C)C(=O)Nc1ccc(Cl)cn1` (stereo not drawn), the concentration for an effect of 90% (IC90) was 1.83 µM. Besides, the IC50 (HEPG2TOX_HILL_SLOPE 1.79, HEPG2TOX_R_SQUARED 0.979, PBLUC_HILL_SLOPE 1.96, PBLUC_R_SQUARED 0.845, read-out: LUCIFERASE INFECTION ASSAY - IC50) is 0.596 µM.

For `CCOc1cccc2cc(C(C)Nc3ncnc4n[nH]cc34)oc12` (stereo not drawn), the IC90 worked out at 6.49 µM. For the same molecule, the IC50 (HEPG2TOX_HILL_SLOPE 1.82, HEPG2TOX_R_SQUARED 0.969, PBLUC_HILL_SLOPE 2.94, PBLUC_R_SQUARED 0.376, read-out: LUCIFERASE INFECTION ASSAY - IC50) was 3.07 µM.

For the molecule `CN1C(=O)N(CCCc2ccncc2)C(=O)C12CCN(Cc1cc3ccccc3[nH]1)CC2`, the IC90 was more than 7.65 µM. For the same molecule, the IC50 (HEPG2TOX_HILL_SLOPE 1.79, HEPG2TOX_R_SQUARED 0.954, PBLUC_HILL_SLOPE 8.39, PBLUC_R_SQUARED 0.134, read-out: LUCIFERASE INFECTION ASSAY - IC50) turned out to be 6.78 µM.

On to `N#Cc1ccccc1Sc1ccccc1C(=O)OCc1cc(=O)oc2cc(Br)ccc12`, for which the IC90 was more than 10 µM. Further, the IC50 (HEPG2TOX_HILL_SLOPE 1.78, HEPG2TOX_R_SQUARED 0.958, PBLUC_HILL_SLOPE 3.89, PBLUC_R_SQUARED 0.0824, read-out: LUCIFERASE INFECTION ASSAY - IC50) is 9.13 µM.

`NC(=O)c1c(NC(=O)N2CCC(Cc3ccccc3)CC2)sc2c1CCC2`: the IC90 was more than 8.6 µM. Also, for the setting “HEPG2TOX_HILL_SLOPE 1.79, HEPG2TOX_R_SQUARED 0.702, PBLUC_HILL_SLOPE 1.44, PBLUC_R_SQUARED 0.101, read-out: LUCIFERASE INFECTION ASSAY - IC50”, the IC50 stood at 3.57 µM.

Consider `COc1ccc(-c2cn(CC(=O)c3ccccc3)c3[n+]2-c2ccccc2CC3)cc1`, for which the IC90 was more than 10 µM. Also, the IC50 (HEPG2TOX_HILL_SLOPE 1.82, HEPG2TOX_R_SQUARED 0.932, PBLUC_HILL_SLOPE 2.71, PBLUC_R_SQUARED 0.363, read-out: LUCIFERASE INFECTION ASSAY - IC50) was 4.75 µM.

Consider `COc1ccc(-c2nonc2NC(=O)c2oc3cc(C)ccc3c2C)cc1OC`, for which the IC90 came out at 3.11 µM. Also, where the note is “HEPG2TOX_HILL_SLOPE 1.8, HEPG2TOX_R_SQUARED 0.881, PBLUC_HILL_SLOPE 18.6, PBLUC_R_SQUARED 0.206, read-out: LUCIFERASE INFECTION ASSAY - IC50”, the IC50 was determined as 2.77 µM.

`CCOC(=O)c1ccc(NC2CCCCC2)c(/N=C/c2cc(Cl)cc(Cl)c2O)c1`: the concentration for an effect of 90% (IC90) turned out to be 2.39 µM. In addition, the IC50 (HEPG2TOX_HILL_SLOPE 1.82, HEPG2TOX_R_SQUARED 0.941, PBLUC_HILL_SLOPE 4.39, PBLUC_R_SQUARED 0.446, read-out: LUCIFERASE INFECTION ASSAY - IC50) came to 1.45 µM.

`CCN(CC)c1ccc(Nc2nc(-c3c(C)nc4ncccn34)cs2)cc1`: the IC90 turned out to be 6.56 µM. In addition, the IC50 (HEPG2TOX_HILL_SLOPE 1.79, HEPG2TOX_R_SQUARED 0.957, PBLUC_HILL_SLOPE 3.27, PBLUC_R_SQUARED 0.301, read-out: LUCIFERASE INFECTION ASSAY - IC50) was 3.35 µM.
